We go through 1 molecule from patent publication US5916892A, “Trans cyclopentanyl deazaadenyl analogs useful as immunosuppressants” (Hoechst Marion Roussel, Inc., priority 1997, dated 1999).

Assay [1] concerns Rat macrophage antigen presentation and the subsequent production of Interleukin-2. Briefly: Regulation of macrophage antigen presentation (mBSA) to rat T-cell hybridoma, Interleukin-2 measured. In kind it is cell-based, Lewis (LEW/N) rat. Here is the method:
Using the method of Ku (Cellular Immunology 130,(1990)) and a Lewis (LEW/N) rat T-cell hybridoma reactive with the protein methylated bovine serum albumin (mBSA), the ability of a compound of formula (1) to regulate M.phi. antigen presentation in vitro may be measured. Peritoneal macrophages obtained from LEW/N rats are plated into tissue culture and treated with 100 ug of mBSA and drug. A control is prepared similarly. After a period of 18 hours the cells are washed and incubated with the T-cell hybridoma for an additional 12 hours. Supernatants from these cultures are obtained and measured for content of Interleukin-2, a T-cell derived lymphokine which is produced by activated T-cells.

Assay [2] has as its system endotoxin-induced septic shock. As to the kind of experiment: Mouse endotoxin lethality model (D-galactosamine and LPS). The conditions noted are these: 100 mg/kg i.p., pretreated at t=-1 hr; death observed over 8-72 hours. In kind it is in vivo, CF1 mice. The method, then: Using the method of Silverstein, (J. Exp. Med. 173, 357 (1991)) a mouse endotoxin lethality model may be used to determine if a compound of formula (1) has the ability to inhibit endotoxin-induced septic shock which is dependent on the production of Tumor Necrosis Factor-α (TNF-α). CF1 mice pretreated at time (t)=-1 hr with drug are challenged with 18 mg of D-glactoseamine and 50 ng of LPS, then observed for death over an 8-72 hour period.

Where a name gives a salt, the structure may show the parent alone.

In general, inhibition refers to the percentage by which the read-out fell short of the control. Take `Nc1ncnc2c1ncn2[C@@H]1CC[C@@H](O)C1` [(1R,3R)-TRANS-1(9-ADENYL)CYCLOPENTAN-3-OL HYDROCHLORIDE]: the “T-cell activation / antigen presentation and Interleukin-2 production (in words)” value in assay [1] (0.1 to 100 uM) is “inhibits T-cell activation”. The inhibition at 0.1 µM in assay [1] (Rattus norvegicus, Macrophage, In Vitro Concentration 0.1 uM, IL-2 production) was 7.6%. Besides, 1 µM produced 30.9% inhibition in assay [1] (Rattus norvegicus, Macrophage, In Vitro Concentration 1.0 uM, IL-2 production). In assay [1] (Rattus norvegicus, Macrophage, In Vitro Concentration 10.0 uM, IL-2 production), this molecule registered an inhibition at 10 µM of 48.7%. This molecule also gave an inhibition at 100 µM in assay [1] (Rattus norvegicus, Macrophage, In Vitro Concentration 100.0 uM, IL-2 production) of 55.3%. The “protection against endotoxin lethality” value in assay [2] is listed as “protects against endotoxin lethality”.
